Measured values published in patent US20150265633A1, “STEROID CONTAINING DRUG DELIVERY SYSTEM” (Allergan, Inc., priority 2007, published 2015).
Converted amounts (≈) assume the structure as drawn.

Legend:
[1] = test system: wet age-related macular degeneration; assay: Treatment of ARMD with a viscous GD formulation (Example 5); type: in vivo, human; details: intravitreal 100 μl hyaluronic acid solution with about 1000 μg crystals in suspension
Experimental: A person with wet age-related macular degeneration is treated with an intravitreal injection of 100 μl of a hyaluronic acid solution containing about 1000 μg of fluticasone propionate crystals in suspension.

physchem = assay: physchem
From the text: Log P is the lipophilicity coefficient, where P is the octonol/water partition coefficient.

[2] = test system: VEGF-induced BRB and BAB breakdown in rabbit eye; assay: Rabbit model of VEGF-induced BRB and BAB breakdown, scanning ocular fluorophotometry, aqueous steroid suspensions (Example 1); type: in vivo; details: for inhibition of VEGF-induced BAB breakdown (iris leakage, anterior segment) / inhibition of VEGF-induced BRB breakdown (retinal leakage, posterior segment): 1 mg (100 μl of 10 mg/ml suspension) intravitreal, VEGF one month thereafter, fluorophotometry 48 hrs after VEGF; for block of VEGF-induced BAB breakdown (iris leakage) / block of VEGF-induced BRB breakdown (retinal leakage): rabbit, corticosteroid administered systemically or intravitreally
Experimental: An in vivo (rabbit eye) experiment was carried out with liquid glucocorticoid derivative formulations. Recombinant vascular endothelial growth factor (VEGF) was obtained from a supplier (R&D Systems). Female Dutch Belt rabbits were anaesthetized with isoflurane inhalation and topical 0.5% proparacaine hydrochloride, and intravitreal injection of one eye with 500 ng VEGF in sterile phosphate buffered saline (PBS) containing 0.1% bovine serum albumin was performed using a 28 gauge ½ inch needle. The other eye is given the same volume of the vehicle, without the VEGF.
The extent of VEGF-induced BRB and BAB breakdown of the blood retinal barrier and the blood aqueous barrier was measured by scanning ocular fluorophotemetry (Fluorotron Master, Ocumetrics Inc.); at various times following intravitreal injection. In this model a fluorescent label is administered intravenously, following by determination of the amount of fluorescenin in the anterior and posterior segment and an indication of iridial and retinal leakage, respectively.
VEGF injection mimics this pathological condition.
Sodium fluorescein in 1 ml saline was injected via the marginal ear vein at a concentration of 50 mg/kg, and ocular fluorescein levels in the vitreoretinal chamber and the anterior chamber was determined 50 minutes later.
Ten milligrams of each compound is added to 1 ml of sterile phosphate-buffered saline (PBS; ph 7.4). At day 0, 100 μl of a 10 mg/ml suspension of each steroid is injected into the vitreous of a rabbit eye. The PBS vehicle is injected into the other eye. VEGF is then injected at a pre-determined time (one month) thereafter, and BRB and BAB breakdown were measured by scanning ocular fluorophotometry 48 hrs later as described in Edelman et al., EXP.

Water solubility = type: physicochemical
cystic macular edema = assay: Treatment of macular edema with a solid GD implant (Example 4); type: in vivo, human
Experimental: A person diagnosed with cystic macular edema treated by administration of a biodegradable drug delivery system administered to each eye of the patient. […] A similar implant is administered subconjunctivally to the patient's right eye. […] No increase in intraocular pressure is seen one week after administration.

[3] = 500 ng VEGF intravitreal, 48 hours after injection, 50 minutes after fluorescein
[4] = after about 3 months from the surgery, 2 mg PLGA implant with about 1000 μg drug

Molecule | Lipophicity (log P) (physchem) | logP (physchem) | inhibition of VEGF-induced BAB breakdown (iris leakage, anterior segment) ([2]; rabbit eye) | inhibition of VEGF-induced BRB breakdown (retinal leakage, posterior segment) ([2]; rabbit eye) | block of VEGF-induced BAB breakdown (iris leakage) [2] | block of VEGF-induced BRB breakdown (retinal leakage) [2] | other results
CCC(=O)O[C@]1(C(=O)SCF)[C@H](C)C[C@H]2[C@@H]3C[C@H](F)C4=CC(=O)C=C[C@]4(C)[C@@]3(F)[C@@H](O)C[C@@]21C [Fluticasone propionate] | 4.20 | 4.2 | no effect | completely blocks |  |  | quality of life reported by patient [1]: overall improvement; rate of neovascularization and related inflammation ([1]; within one month): acceptable reduction; solubility (Water solubility; water): 0.14 µg/mL (≈ 0.28 µM)
C[C@H]1C[C@H]2[C@@H]3CCC4=CC(=O)C=C[C@]4(C)[C@@]3(Cl)[C@@H](O)C[C@]2(C)[C@@]1(O)C(=O)CO [beclomethasone] |  |  | inhibited | inhibited | completely blocked | completely blocked | 
CC1(C)O[C@@H]2C[C@H]3[C@@H]4CCC5=CC(=O)C=C[C@]5(C)[C@@]4(F)[C@@H](O)C[C@]3(C)[C@]2(C(=O)CO)O1 [Triamcinolone acetonide] |  |  | completely inhibited | completely inhibited | completely blocked | completely blocked | logP (physchem; octanol/water): 2.53; Water Solubility (Water solubility): 21 µg/mL
C[C@@H]1C[C@H]2[C@@H]3CCC4=CC(=O)C=C[C@]4(C)[C@@]3(F)[C@@H](O)C[C@]2(C)[C@@]1(O)C(=O)CO [Dexamethasone] | 1.95 | 1.95 |  |  |  |  | 
VEGF |  |  |  |  |  |  | increase in fluorescein contained in the aqueous (BAB breakdown) compared to normal untreated rabbit eyes [2, 3]: approximately 6 fold; increase in fluorescein contained in the vitreous (BRB breakdown) compared to normal untreated rabbit eyes [2, 3]: approximately 18 fold
CCC(=O)OCC(=O)[C@@]1(OC(=O)CC)[C@@H](C)C[C@H]2[C@@H]3CCC4=CC(=O)C=C[C@]4(C)[C@@]3(Cl)[C@@H](O)C[C@@]21C [Beclomethasone dipropionate, beclomethasone 17,21-dipropionate] | 4.40 | 4.4 | no effect | completely blocks |  |  | appearance of the retina (cystic macular edema; [4]): appears normal; degeneration of the optic nerve (cystic macular edema; [4]): appears to be reduced; increase in intraocular pressure (cystic macular edema; one week after administration, 2 mg PLGA implant with about 1000 μg drug): No increase; reduction in retinal thickness (cystic macular edema; right eye (implant subconjunctival) versus left eye (intravitreal), 2 mg implant, about 1000 μg PLGA and about 1000 μg drug): more rapid reduction; duration of complete inhibition of VEGF-mediated responses ([2]; rabbit eye, 100 μl of 10 mg/ml intravitreal): greater than 3 months
